Values joined by “and” are separate entries in the source; they are usually repeats but may differ in a detail not shown here. Equal values may be shown once. Read-outs that look alike come from different tables or passages of the source.

Assay [1] addresses T1, T1R1/T1R3 receptor (Felis catus, UniProt E3UMS2). Put plainly: cell-based. An outline of the steps: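 HEK293 cells stably expressing T1R3 with inducible T1R1 were given transmembrane compounds in serial dilutions up to 10 mM, alone or with amino acids and/or nucleotides. Receptor activation was read as an intracellular calcium change with a calcium-sensitive fluorescent dye; T1R3-only cells served as control.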

Assay [2] has as its target T1, T1R1/T1R3 receptor. Briefly: Example 8: agonist screening of transmembrane compounds on T1R1/T1R3 in HEK293 cells. The note with it: for agonist profile assessment (agonist activity): transmembrane compound alone; for T1R1/T1R3 agonist: transmembrane compound tested at 0.01, 0.1 and 1 mM, HEK293 cells expressing T1R1/T1R3, intracellular calcium. Type of assay: cell-based, cat. As to the method: HEK293 cells that stably express T1R3 and inducibly express T1R1 were exposed to a transmembrane compound. Activation of the T1R1/T1R3 receptor was detected by a change in intracellular calcium levels using a calcium sensitive fluorescent dye and/or a luminescent reporter system. […] A FLIPR® Tetra or a FlexStation® 3 was used for data capture.
Each transmembrane compound was tested at concentrations of 0.01 mM, 0.1 mM, and 1 mM. […] To generate the dose response curves, the transmembrane compound was tested at concentrations of between 0.0001 mM and 1.0 mM in the presence of GMP and Ala.

In assay [3] the target is T1, T1R1/T1R3 receptor. Briefly: Example 8: PAM screening of transmembrane compounds with GMP and Ala on T1R1/T1R3 in HEK293 cells. Format: cell-based, cat. As to conditions: for PAM profile assessment (PAM activity): in the presence of GMP and Alanine; for T1R1/T1R3 PAM: compound at 0.01, 0.1 and 1 mM in combination with GMP+Ala mixtures (T1-T4), PAM if response greater than sum of compound alone and GMP+Ala alone. An excerpt: HEK293 cells that stably express T1R3 and inducibly express T1R1 were exposed to transmembrane compound alone or in combination with Ala and GMP to activate the umami receptor. Activation of the T1R1/T1R3 receptor was detected by a change in intracellular calcium levels using a calcium sensitive fluorescent dye and/or a luminescent reporter system. […] A FLIPR® Tetra or a FlexStation® 3 was used for data capture.
Dose response curves were generated for each transmembrane compound at concentrations of 0 (buffer only), 0.01, 0.1 and 1 mM, wherein each of the three concentrations of transmembrane compound was tested in combination with 0.03 mM GMP+100 mM Ala (T1); 0.6 mM GMP+10 mM Ala (T2); 0.1 mM GMP+60 mM Ala (T3) and 0.3 mM GMP+60 mM Ala (T4). The T4 mixture was also tested in a 2-fold dilution series (the T4(×) Concentration). In these experiments, the first test concentration was 2× (2 times) the T4 concentration. The subsequent test concentrations were 2-fold dilutions from that (1×, 0.5×etc.). This dilution series was tested with or without the addition of the test compound at a constant 0.3 mM concentration.
Activation of the umami receptor was also determined in the presence of 1 mM GMP+100 mM Ala to generate a “maximum” umami receptor activation level.

In assay [4] the target is T1, T1R1/T1R3 receptor. Put plainly: cell-based. Type of assay: cell-based. An outline of the steps:
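HEK293 cells stably expressing T1R3 with inducible T1R1 received serial dilutions of compound (up to 10 mM), alone or with amino acids and/or nucleotides. Activation was read as an intracellular calcium change with a calcium-sensitive fluorescent dye. Cells expressing T1R3 without T1R1 served as control.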

For the compound `COC(=O)[C@H](Cc1ccccc1)NCc1ccccc1.Cl` [N-benzyl-L-phenylalanine methyl ester hydrochloride], on T1R1/T1R3 receptor [1], the “Max resp % of IMP, +Alanine (20 mM)” value is 273.4% and the “Thres (mM), +Alanine (20 mM)” value came to 0.01 mM. Also, the “Max resp ΔF/F, +IMP (0.2 mM)” value on T1R1/T1R3 receptor [1] (in the presence of 0.2 mM IMP) is recorded as 2.2500 ΔF/F. Further, the “Max resp % of Ala, +IMP (0.2 mM)” value on T1R1/T1R3 receptor [1] (in the presence of 0.2 mM IMP, relative to alanine) came out at 289.4%. Also, the “Thres (mM), +IMP (0.2 mM)” value at T1R1/T1R3 receptor [1] (threshold concentration in the presence of 0.2 mM IMP) was determined as 0.003 mM. Moreover, on T1R1/T1R3 receptor [2], the “agonist profile assessment (agonist activity)” value is “agonist”. In addition, the “PAM profile assessment (PAM activity)” value at T1R1/T1R3 receptor [3] is listed as “PAM activity”.

In the case of `CCCC(CCC)NC(=O)c1ccc2c(c1)OCO2` [N-(heptan-4-yl)benzo[d][1,3]dioxole-5-carboxamide], the “Max resp ΔF/F +Alanine” value on T1R1/T1R3 receptor [4] (+ Alanine, Table 17) was 1.7725 and 1.2; at T1R1/T1R3 receptor [4] (+Alanine (20 mM), Table 18), 1.2 and 1.7725. Also, the “Max resp ΔF/F +IMP” value at T1R1/T1R3 receptor [4] (+ IMP (0.2 mM), Table 17) was 1.4725; on T1R1/T1R3 receptor [4] (+IMP (0.2 mM), Table 18), 1.393 and 1.473. Further, the EC50 (usually the concentration giving half of the maximal effect) is 420 µM and 1100 µM on T1R1/T1R3 receptor [4] (+Alanine (20 mM), Table 18, read-out: EC50 +Alanine); 90 µM and 100 µM at T1R1/T1R3 receptor [4] (EC50 + IMP, + IMP (0.2 mM), Table 17); 30 µM and 100 µM on T1R1/T1R3 receptor [4] (EC50 +Alanine + IMP, +Alanine (20 mM) + IMP (0.2 mM), Table 18); 100 µM and 90 µM at T1R1/T1R3 receptor [4] (EC50 +IMP, +IMP (0.2 mM), Table 18); 30 ± 30 µM at T1R1/T1R3 receptor [4] (EC50 - with Ala (20 mM) and IMP (0.2 mM), with 20 mM alanine and 0.2 mM IMP); 420 ± 60 µM on T1R1/T1R3 receptor [4] (EC50 - with Ala (20 mM), with 20 mM alanine). Besides, the EC50 on T1R1/T1R3 receptor [4] (EC50 - with IMP (0.2 mM), with 0.2 mM IMP) was 90 ± 40 µM; at T1R1/T1R3 receptor [4] (alone in buffer, read-out: EC50 - alone), 260 ± 90 µM; on T1R1/T1R3 receptor [4] (compound alone in buffer, Table 17, read-out: EC50 + buffer (alone)), 700 µM and 260 µM; on T1R1/T1R3 receptor [4] (compound alone in buffer, Table 18, read-out: EC50 +buffer (alone)), 260 µM and 700 µM; at T1R1/T1R3 receptor [4] (read-out: EC50 + Alanine) it was 1100 µM and 420 µM. The “agonist profile assessment (agonist activity)” value on T1R1/T1R3 receptor [2] was “agonist”. Further, at T1R1/T1R3 receptor [3], the “PAM profile assessment (PAM activity)” value is “PAM activity”.

Consider `O=C(CN1C(=O)C(=O)N(Cc2ccccc2)C1=O)c1ccc2c(c1)CCC2` [Formula 2, 1-benzyl-3-(2-(2,3-dihydro-1H-inden-5-yl)-2-oxoethyl)imidazolidine-2,4,5-trione], for which the T1R1/T1R3 agonist entry at T1R1/T1R3 receptor [2] is “No”. In addition, the “T1R1/T1R3 PAM” value on T1R1/T1R3 receptor [3] is “No”.

Turning to `CCCC(CCC)NC(=O)c1ccc2c(c1)OCO2` [Formula 14, N-(heptan-4-yl)benzo[d][1,3]dioxole-5-carboxamide], the T1R1/T1R3 agonist result at T1R1/T1R3 receptor [2] is listed as “Yes”. Moreover, on T1R1/T1R3 receptor [3], the “T1R1/T1R3 PAM” value is “Yes”.

Take `O=C(CN1C(=O)C(=O)N(CCc2cccs2)C1=O)c1ccc2c(c1)OCO2` [Formula 7, 1-(2-(benzo[d][1,3]dioxol-5-yl)-2-oxoethyl)-3-(2-(thiophen-2-yl)ethyl)imidazolidine-2,4,5-trione]: at T1R1/T1R3 receptor [2], the T1R1/T1R3 agonist entry is “No”. Besides, the “T1R1/T1R3 PAM” value at T1R1/T1R3 receptor [3] was “No”.

Source of the values: US20180168208A1 (priority 2014, published 2018).
